The target in test [1] is T1, Serine/threonine-protein kinase Nek9 (Homo sapiens, UniProt Q8TD19).
T1 sequence (Q8TD19 whole entry): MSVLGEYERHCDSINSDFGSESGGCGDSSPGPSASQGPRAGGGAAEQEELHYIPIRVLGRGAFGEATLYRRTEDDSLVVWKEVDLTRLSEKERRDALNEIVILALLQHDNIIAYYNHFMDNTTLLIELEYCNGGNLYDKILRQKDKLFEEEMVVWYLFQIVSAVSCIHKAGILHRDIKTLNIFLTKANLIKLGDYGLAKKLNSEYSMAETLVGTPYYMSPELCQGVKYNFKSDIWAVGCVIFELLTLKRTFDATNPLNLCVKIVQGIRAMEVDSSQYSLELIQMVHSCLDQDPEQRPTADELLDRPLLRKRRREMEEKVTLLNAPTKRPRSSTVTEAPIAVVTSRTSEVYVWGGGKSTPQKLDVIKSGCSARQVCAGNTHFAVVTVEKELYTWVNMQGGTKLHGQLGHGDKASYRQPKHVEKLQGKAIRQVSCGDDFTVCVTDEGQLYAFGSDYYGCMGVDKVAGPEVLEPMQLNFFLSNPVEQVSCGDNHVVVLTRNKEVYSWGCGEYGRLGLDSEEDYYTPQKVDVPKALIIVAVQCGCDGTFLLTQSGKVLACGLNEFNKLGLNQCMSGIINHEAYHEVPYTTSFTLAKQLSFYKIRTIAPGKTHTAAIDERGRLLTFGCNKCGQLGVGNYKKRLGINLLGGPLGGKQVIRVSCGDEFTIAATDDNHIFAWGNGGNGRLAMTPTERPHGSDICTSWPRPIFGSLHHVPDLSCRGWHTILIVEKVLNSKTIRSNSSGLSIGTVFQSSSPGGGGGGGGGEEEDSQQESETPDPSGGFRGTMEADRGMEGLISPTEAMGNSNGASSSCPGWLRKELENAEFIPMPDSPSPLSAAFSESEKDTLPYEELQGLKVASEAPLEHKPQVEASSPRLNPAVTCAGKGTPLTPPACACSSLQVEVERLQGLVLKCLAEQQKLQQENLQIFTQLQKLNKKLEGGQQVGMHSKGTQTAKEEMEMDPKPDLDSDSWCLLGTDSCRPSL

The target in test [2] is T2, Mitogen-activated protein kinase kinase kinase 5 (Homo sapiens, UniProt Q99683).
T2 sequence (Q99683 whole entry): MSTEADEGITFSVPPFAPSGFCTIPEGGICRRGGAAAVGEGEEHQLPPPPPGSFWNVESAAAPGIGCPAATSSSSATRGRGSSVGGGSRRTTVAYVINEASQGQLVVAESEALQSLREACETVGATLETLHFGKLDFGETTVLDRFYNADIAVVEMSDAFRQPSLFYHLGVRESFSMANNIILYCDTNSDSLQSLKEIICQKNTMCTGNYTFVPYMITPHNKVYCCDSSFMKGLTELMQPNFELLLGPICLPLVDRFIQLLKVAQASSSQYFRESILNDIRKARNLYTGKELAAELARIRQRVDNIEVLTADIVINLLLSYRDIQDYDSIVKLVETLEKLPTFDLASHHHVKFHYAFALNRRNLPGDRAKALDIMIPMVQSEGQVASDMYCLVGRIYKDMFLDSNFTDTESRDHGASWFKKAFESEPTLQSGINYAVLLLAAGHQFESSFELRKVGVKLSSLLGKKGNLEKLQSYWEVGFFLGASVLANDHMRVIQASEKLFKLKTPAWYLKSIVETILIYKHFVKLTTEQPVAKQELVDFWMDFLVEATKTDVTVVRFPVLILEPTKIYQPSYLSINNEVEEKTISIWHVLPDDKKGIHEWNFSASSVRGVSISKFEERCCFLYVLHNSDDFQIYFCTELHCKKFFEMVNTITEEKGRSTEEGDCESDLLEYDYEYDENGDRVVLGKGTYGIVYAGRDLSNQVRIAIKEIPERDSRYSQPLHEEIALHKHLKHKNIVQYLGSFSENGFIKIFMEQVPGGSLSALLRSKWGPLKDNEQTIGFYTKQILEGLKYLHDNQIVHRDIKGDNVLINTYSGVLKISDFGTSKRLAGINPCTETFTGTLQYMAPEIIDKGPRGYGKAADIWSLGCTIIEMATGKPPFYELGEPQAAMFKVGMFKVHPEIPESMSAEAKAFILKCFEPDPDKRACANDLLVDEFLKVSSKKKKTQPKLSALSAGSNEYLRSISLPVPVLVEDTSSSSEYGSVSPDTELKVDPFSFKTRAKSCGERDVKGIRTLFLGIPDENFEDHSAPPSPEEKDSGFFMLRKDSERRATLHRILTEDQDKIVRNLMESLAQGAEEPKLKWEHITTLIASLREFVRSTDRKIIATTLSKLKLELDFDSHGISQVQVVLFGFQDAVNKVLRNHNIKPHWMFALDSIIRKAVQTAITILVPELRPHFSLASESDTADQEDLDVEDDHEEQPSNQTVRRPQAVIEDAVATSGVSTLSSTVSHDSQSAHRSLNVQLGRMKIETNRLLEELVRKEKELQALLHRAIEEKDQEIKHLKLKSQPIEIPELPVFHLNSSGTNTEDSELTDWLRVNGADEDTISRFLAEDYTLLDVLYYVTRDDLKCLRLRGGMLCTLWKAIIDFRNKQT

The target in test [3] is Protein kinase C theta type (Homo sapiens, UniProt Q04759).
Sequence of Protein kinase C theta type (Q04759 whole entry): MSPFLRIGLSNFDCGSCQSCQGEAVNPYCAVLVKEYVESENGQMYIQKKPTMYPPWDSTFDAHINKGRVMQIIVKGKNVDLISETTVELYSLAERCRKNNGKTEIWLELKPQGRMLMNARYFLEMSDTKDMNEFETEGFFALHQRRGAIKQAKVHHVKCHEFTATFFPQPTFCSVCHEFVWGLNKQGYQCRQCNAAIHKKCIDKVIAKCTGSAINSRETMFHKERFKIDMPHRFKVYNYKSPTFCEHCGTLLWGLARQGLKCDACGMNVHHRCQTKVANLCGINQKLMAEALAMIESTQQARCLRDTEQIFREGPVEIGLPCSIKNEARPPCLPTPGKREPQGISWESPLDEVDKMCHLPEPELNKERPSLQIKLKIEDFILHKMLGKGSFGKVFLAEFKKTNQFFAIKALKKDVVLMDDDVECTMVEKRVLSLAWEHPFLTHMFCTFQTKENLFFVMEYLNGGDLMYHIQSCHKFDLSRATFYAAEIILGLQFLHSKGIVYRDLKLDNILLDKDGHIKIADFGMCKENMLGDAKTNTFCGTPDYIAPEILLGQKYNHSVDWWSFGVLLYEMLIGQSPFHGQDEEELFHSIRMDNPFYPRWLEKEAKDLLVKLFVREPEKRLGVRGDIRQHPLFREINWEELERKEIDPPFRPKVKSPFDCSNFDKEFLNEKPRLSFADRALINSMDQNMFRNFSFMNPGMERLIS

Each structure is given as a SMILES string. Where a name gives a salt, the structure may show the parent alone. Activity calls are given as the source filed them.

The term Kd denotes the constant that tells how readily two partners part at equilibrium.
Also: in the data inactive means no Kd found up to 30 µM.

With `C[C@@H](Oc1cc(C(=O)Nc2ccc(C(=O)N3CCN(C)CC3)cc2)nnc1N)c1c(Cl)ccc(F)c1Cl`, the Kd in test [1] and in test [2] was > 30 µM (inactive) throughout.
Regarding `C[C@H]1CNCCCN1S(=O)(=O)c1cccc2cncc(F)c12`, the Kd in test [1] and in test [2] was > 30 µM (inactive) each time.
Take `CC(=O)c1cnc2ccc(-c3cc(Cl)c(O)c(Cl)c3)nc2c1N[C@H]1CC[C@H](CN(C)C)CC1`: the Kd in test [1] is > 30 µM (inactive); in test [2] it was 0.878 µM (active).
For `CCNC(=O)C#Cc1ccc2c(c1)NC(=O)/C2=C(\Nc1ccc(CN(C)C)cc1)c1ccccc1`, in that order: > 30 µM (inactive) and > 30 µM (inactive).
For `C=CC(=O)N1CCC[C@H](n2c(=O)n(-c3ccc(Oc4ccccc4)cc3)c3c(N)ncnc32)C1`, the Kd in test [1], in test [3] and in test [2] was > 30 µM (inactive) in each case.
As to `Cc1nc2cc(-c3nn(C(C)C)c4ncnc(N)c34)ccc2o1`, the Kd in test [1], in test [3] and in test [2] was > 30 µM (inactive) each time.
Turning to `COCc1c(-c2ccc(NC(=O)Nc3cc(C(F)(F)F)ccc3F)c(F)c2)c2c(N)ncnn2c1CN1CCOCC1`, the Kd in test [1] and in test [2] was > 30 µM (inactive) throughout.
For the compound `Nc1ncnc2c1c(-c1cccc(OCc3ccccc3)c1)cn2[C@H]1C[C@@H](CN2CCC2)C1` [AEW-541], the Kd in test [1], in test [3] and in test [2] was > 30 µM (inactive) throughout.
For `COc1cc(Nc2ncc3c(n2)-c2ccc(Cl)cc2C(c2c(F)cccc2OC)=NC3)ccc1C(=O)O` [ALISERTIB], the Kd in test [1] and in test [2] was > 30 µM (inactive) in each case.
Take `Cc1nc(NC(=O)N2CCC[C@H]2C(N)=O)sc1-c1ccnc(C(C)(C)C(F)(F)F)c1` [ALPELISIB]: the Kd in test [1], in test [3] and in test [2] was > 30 µM (inactive) throughout.
Regarding `Cc1csc(-c2nnc(Nc3ccc(Oc4ncccc4-c4ccnc(N)n4)cc3)c3ccccc23)c1` [AMG-900], the Kd is > 30 µM (inactive) in test [1], > 30 µM (inactive) in test [3] and 2.79 µM (active) in test [2].
As for `O=C(Nc1c[nH]nc1-c1nc2cc(CN3CCOCC3)ccc2[nH]1)NC1CC1` [AT-9283], in test [3], the Kd was > 30 µM (inactive).
Turning to `C=CC(=O)Nc1cc2c(Nc3ccc(F)c(Cl)c3)ncnc2cc1C#CC(C)(C)N1CCN(C)CC1` [AV-412 FREE BASE], the Kd in test [1], in test [3] and in test [2] was > 30 µM (inactive) each time.
In the case of `CCS(=O)(=O)N1CCN(c2ccc(Nc3ncc(C(N)=O)c(NC4CC4)n3)cc2)CC1` [Cerdulatinib Hydrochloride], the Kd in test [1] and in test [3] was > 30 µM (inactive) in each case.
For the compound `CC(C)(C)c1nc(-c2cccc(NS(=O)(=O)c3c(F)cccc3F)c2F)c(-c2ccnc(N)n2)s1` [DABRAFENIB], in test [1], the Kd is 0.053 µM (active).
Consider `Cc1[nH]c(/C=C2\C(=O)Nc3ccccc32)c(C)c1CCC(=O)O` [ORANTINIB], for which the Kd in test [1] and in test [2] was > 30 µM (inactive) in each case.
Regarding `NC(=O)c1c(OCc2c(F)cc(Br)cc2F)nsc1NC(=O)NCCCCN1CCCC1` [OSI-632], the Kd in test [1] and in test [2] was > 30 µM (inactive) in each case.
As to `CC(=O)NCC(=O)N1[C@@H]2CC[C@H]1c1ccc(Nc3ncc(C(F)(F)F)c(NC4CCC4)n3)cc12` [PF-03814735], the Kd in test [1] is > 30 µM (inactive).
Regarding `CNC(=O)c1cc(Oc2ccc(NC(=O)Nc3cc(C(C)(C)C)nn3-c3ccc4ncccc4c3)c(F)c2)ccn1` [REBASTINIB], the Kd in test [3] and in test [2] was > 30 µM (inactive) throughout.
In the case of `Cn1ncc(Cl)c1-c1cc(C(=O)N[C@H](CN)Cc2ccc(F)c(F)c2)oc1Cl` [UPROSERTIB], the Kd in test [1] and in test [2] was > 30 µM (inactive) throughout.

The record behind these values is ChEMBL document CHEMBL3991601, “The target landscape of clinical kinase drugs” (Science, 2017).
